Columns and labels:
[1] = test system: TGFβ1-induced hHSC; assay: α-SMA ELISA in TGFβ1-induced human primary hepatic stellate cells; assay type: cell-based
Method: (§1) The human primary hepatic stellate cells (hHSC) (Innoprot) were cultured in STeCM medium (ScienCell cat #5301) that was supplemented with 2% fetal bovine serum (FBS, ScienCell cat #0010), 1% penicillin/streptomycin (ScienCell cat #0503) and stellate cell growth supplement (SteCGS; ScienCell cat #5352). Cell culture flasks were coated with Poly-L Lysine (Sigma cat #P4707) for a better adherence.
For these experiments, a checkerboard matrix was generated. ELA and component (ii) stocks were serially diluted in DMSO in 5-points series in a row (ELA) and a 11-points series in a column (component (ii)) of a 96-well plate. Subsequently, the 5×11 combination matrix was generated by 1:1 mixing of all single agent concentrations. The test concentrations for each compound were chosen based on the respective IC50 of each compound as single agent obtained by measuring α-SMA content in the HSC model stimulated with TGF-β1.
The human primary hepatic stellate cells (hHSC) (Innoprot) were cultured under standard conditions, as described above. The cells were subsequently plated at a density of 2×10^4 cells/well into 96-well plates for the measure of α-SMA by ELISA. The next day, cell-culture medium was removed, and cells were washed with PBS (Invitrogen cat #14190). hHSC were deprived for 24 hours in serum-free and SteCGS-free medium. For the treatments with ELA, component (ii) and the respective ELA/component (ii) combinations, the serum-deprived hHSC were preincubated for 1 hour with the compounds followed by addition of the profibrogenic stimuli TGF-β1 (PeproTech cat #100-21, 1 ng/mL) in serum-free and SteCGS-free medium for an additional 48 hour period.
The level of α-SMA was measured using a Sandwich ELISA. Briefly, the wells of an ELISA plate were first coated with the capture antibody (mouse monoclonal anti-ACTA2, Abnova) at 4° C. overnight. After 3 washes in PBS+0.2% Tween 20, a blocking solution consisting of PBS+0.2% BSA was added for one hour followed by another washing cycle. The cell lysates were transferred into the wells for binding to the capture antibody for a period of 2 h at room temperature. After the washing procedure, the detection antibody (biotinylated mouse monoclonal anti-ACTA2, Abnova) was added for 2 hours at room temperature followed by 3 washes. For the detection, an HRP-conjugated Streptavidin (R&D Systems cat #DY998) was first applied for 30 min at room temperature. After washing, the HRP substrate TMB (BD, #555214) was added and incubated for 7 min at room temperature in the dark. Upon oxidation, TMB forms a water-soluble blue reaction product that becomes yellow with addition of sulfuric acid (solution stop), enabling accurate measurement of the intensity at 450 nm using a spectrophotometer. The developed color is directly proportional to the amount of α-SMA present in the lysate.
as §1, with “Cell-culture” for “Cell culture”
For these experiments, a checkerboard matrix was generated. CVC and Elafibranor stocks were serially diluted in DMSO in a 5-points series in a row (Elafibranor) and a 6-points series in a column (Cenicriviroc) of a 96-well plate. Subsequently, the […] combination matrix was generated by 1:1 mixing of all single agent concentrations. The test concentrations for each compound were chosen based on the respective IC50 of each compound as single agent obtained by measuring α-SMA content in the HSC model stimulated with TGF-β1.
The human primary hepatic stellate cells (hHSC) (Innoprot) were cultured under standard conditions, as described above. […]

[2] = test system: fibrosing NASH-model of rats fed a CDAA+1% cholesterol diet; assay: Chronic CDAA+1% cholesterol rat model: liver histology (picrosirius fibrosis surface, NASH lesions); assay type: in vivo, Wistar rats
Method: The preventive effects of Elafibranor alone, OCA alone and the combination of both were assessed in a fibrosing NASH-model of rats fed a CDAA+1% cholesterol diet. 150-175 g male Wistar rats were fed a control (CSAA) diet, CDAA+1% cholesterol diet, or CDAA+1% cholesterol diet supplemented with Elafibranor 1, 3 and 10 mg/kg/day, OCA 10 and 30 mg/kg/day or combined drugs (Elafibranor 1, 3 and 10 mg/kg/day combined to OCA 10 mg/kg/day) for 12 weeks.
The body weight and the food intake were monitored twice per week. On the last day of treatment, rats were sacrificed after a 6 h fasting period. The liver was rapidly excised for biochemical and histological studies.
The liver slices were first fixed for 12 hours in formalin 4% solution. Then, the liver pieces were washed 30 minutes in PBS, and dehydrated in ethanol solutions (successive baths at 70, 80, 95 and 100% ethanol). The liver pieces were incubated in three different baths of Xylene (Sigma-Aldrich cat #534056), followed by two baths in liquid paraffin (56° C.). Liver pieces were then put into racks that were gently filled with HISTOWAX to completely cover the tissue.
The paraffin blocks containing the tissue pieces were removed from the racks and stored at room temperature. The liver blocks were cut into 3 μm slices.
Liver sections were deparaffinized, rehydrated and incubated for 3 minutes in Mayer's Hematoxylin (Microm, cat #F/C0303). Then, the liver sections were rinsed in water and incubated 1 minute in Eosin G (VWR, cat #1.09844.1000). Sections were rinsed in water then dehydrated, and mounted using the CV Mount medium (Leica, cat #14046430011).
Liver sections were deparaffinized, rehydrated and incubated for 15 minutes in a solution of Fast Green FCF 0.1% (Sigma-Aldrich, cat #F7258) before rinsing in a bath of 0.5% acetic acid (Panreac, cat #131008.1611). Then, the liver sections were rinsed in water and incubated 30 minutes in a solution of 0.1% sirius red (Direct Red 80, Fluka cat #43665) in saturated aqueous picric acid (Sigma-Aldrich cat #P6744). Sections were then dehydrated, and mounted using the CV Mount medium (Leica, cat #14046430011).
A technician blinded to the source of each liver specimen performed histological examinations. Virtual slides were generated using the Pannoramic 250 scanner from 3D Histech. For each animal, a score summarizing the main histological lesions of NASH was attributed according to the NASH Clinical Research Network (Kleiner 2005, Brunt 1999). Briefly, steatosis, lobular inflammation and hepatocytes ballooning were scored. The NAFLD Activity Score (NAS score) was established for each individual as the unweighted sum of the steatosis (0-3), lobular inflammation (0-3) and the ballooning (0-2) injury grading.
Using Quant Center software (3D Histech, including Pattern Quant and Histo Quant modules), collagen-stained areas were quantified. Briefly, Pattern Quant was used to detect the tissue and measure its surface. Then, Histo Quant was used to detect the stained collagen content and measure its surface, based on a color threshold method. The fibrosis area was then expressed as the percentage of the collagen surface to the whole tissue per animal.

“1-[4-methylthiophenyl]-3-[3,5-dimethyl-4-carboxydimethylmethyloxyphenyl]prop-2-en-1-one [Elafibranor]” was tested, and the “α-SMA inhibition over TGFβ1 control” value ([1]; 5 μM of Elafibranor alone) was 40%, the IC50 ([1]; TGFβ1 1 ng/ml, 48 h, single agent) was 3.17 µM and the α-SMA marker reduction ([1]; TGFβ1 1 ng/ml, 48 h, single agent, maximal reduction) was 80%. The “antifibrotic activity (α-SMA), single agent” value ([1]; TGFβ1-activated hHSC, dose range) was “has an antifibrotic activity”, the fibrosis development ([2]; CDAA/chol diet rats, 12 weeks) was “very significant attenuation of fibrosis development” and the “hepatocyte damage as judged by ballooning” value ([2]; CDAA/chol diet rats, 12 weeks) was “prevented or attenuated by elafibranor, in a dose-dependent manner”. For the same substance, the lobular inflammation ([2]; CDAA/chol diet rats, 12 weeks) was “attenuated by elafibranor in a dose-dependent manner” and the “Fibrosis surface, percentage over the untreated CDAA + 1% cholesterol rats” value ([2]; GFT505 3 mg/kg/d, OCA 10 mg/kg/d, alone or combined, 12 weeks in diet) was 34% ± 17%.
